One compound from patent US20120238511A1, “2-DEOXY-D-GLUCOSE FORMULATIONS FOR PREVENTION OR TREATMENT OF NEURODEGENERATIVE DISEASES” (University of Southern California, priority 2011, published 2012) can be followed below.

Structures are written as SMILES.

This experiment relates to triple transgenic AD (3×Tg-AD) mouse model. The experiment is described as follows: 2-DG diet in triple transgenic Alzheimer's mouse model. Type of experiment: in vivo. The conditions noted are these: low-density gene array (LDA array) analyses. The method, then: It has been shown that mitochondrial bioenergetic deficits precede Alzheimer's disease (AD) pathology in the triple transgenic AD (3×Tg-AD) mouse model. […] In the current study, the impact of 2-deoxy-D-glucose (2-DG), a compound known to regulate glucose metabolism and induce ketogenesis, on both brain bioenergetics and AD pathology was evaluated.
3×Tg-AD female at 6 month were fed with either a regular diet (AIN-93G) or diet containing 0.04% 2-DG for 7 weeks.

For the compound `OCC1OC(O)CC(O)C1O` [2-DG, 2-deoxy-D-glucose], the Tau phosphorylation result is “reduced” and the amyloid production entry is given as “decreased”.
